Earlier results on 2 compounds are cited in patent US20170014318A9, “Hair-growth-promoting solution containing chlorine dioxide, preparation methods and using methods thereof” (priority 2011, published 2017).

The conditions of data set [1]: 276.5 mg/L aqueous solution.
For data set [2] the following is noted: 276.5 mg/L aqueous solution. The source holds these as a separate data set.
Data set [3] concerns skin and eye mucous. As to conditions: solution containing 9.7 to 11.4 mg/L of chlorine dioxide.
Data set [4] deals with mice.

Consider `[O][Cl+][O-]` [chlorine dioxide], for which the accumulated toxicity entry in data set [1] is listed as “no significant accumulated toxicity”. Moreover, the “toxicity of aqueous solution” value in data set [2] is “actually non-toxic”. Further, in data set [3], the “48 hour skin and eye mucous irritating score” value is recorded as 0.

Turning to stable chlorine dioxide, in data set [4], the “oral LD50” value is greater than 10000 mg/kg.
